Patent US20100004159A1, “SUBSTITUTED IMIDAZOLONE DERIVATIVES, PREPARATIONS AND USES” (GENFIT, priority 2006, published 2010)

| melting point [°C] | SMILES |
| --- | --- |
| 95 | CCCCC1=NC2(CCCCC2)C(=O)N1Cc1ccc(-c2cc(OC(C(=O)O)C(C)C)ccc2F)cc1 (centres unmarked) [Compound 59, 2-butyl-1-[(3′-((1-carboxy-1-(1,1-dimethylmethyl)-methyl)oxy)-6′-fluoro-biphenyl-4-yl)methyl]-4-spirocyclohexyl-1H-imidazol-5(4H)-one] |
| 72 | CCCCC1=NC2(CCCCC2)C(=O)N1Cc1ccc(-c2cc(OC(C)(C)C(=O)O)ccc2F)cc1 [Compound 60, 2-butyl-1-[(3′-((1-carboxy-1,1-dimethylmethyl)oxy)-6′-fluoro-biphenyl-4-yl)methyl]-4-spirocyclohexyl-1H-imidazol-5(4H)-one] |
| 65 | CCCCC1=NC(CC)(CC)C(=O)N1Cc1ccc(-c2cccc(OC(C(=O)O)C(C)C)c2)cc1 (centres unmarked) [Compound 63, 2-butyl-1-[(3′-((1-carboxy-1-(1,1-dimethylmethyl)methyl)oxy)-biphenyl-4-yl)methyl]-4,4-diethyl-1H-imidazol-5(4H)-one] |
| 184 | CCCCC1=NC(CC)(CC)C(=O)N1Cc1ccc(-c2cccc(OC(CC)C(=O)O)c2)cc1 (centres unmarked) [Compound 64, 2-butyl-1-[(3′-((1-carboxy-1-ethylmethyl)oxy)biphenyl-4-yl)methyl]-4,4-diethyl-1H-imidazol-5(4H)one] |
| 144 | CCCCC1=NC(CC)(CC)C(=O)N1Cc1ccc(-c2cccc(OC(C)(C)C(=O)O)c2)cc1 [Compound 65, 2-butyl-1-[(3′-((1-carboxy-1,1-dimethylmethyl)oxy)biphenyl-4-yl)methyl]-4,4-diethyl-1H-imidazol-5(4H)one] |
| 186 | CCCCC1=NC(CC)(CC)C(=O)N1Cc1ccc(-c2cccc(OC(C)C(=O)O)c2)cc1 (centres unmarked) [Compound 66, 2-butyl-1-[(3′-((1-carboxy-1-methylmethyl)oxy)biphenyl-4-yl)methyl]-4,4-diethyl-1H-imidazol-5(4H)one] |
| 184 | CCCCC1=NC2(CCCCC2)C(=O)N1Cc1ccc(-c2cccc(OC3(C(=O)O)CCC3)c2)cc1 [Compound 67, 2-butyl-1-[(3′-((1-carboxy-1-spirocyclobutylmethyl)oxy)biphenyl-4-yl)methyl]-4-spirocyclohexyl-1H-imidazol-5(4H)-one] |
| 65 | CCCCC1=NC(CC)(CC)C(=O)N1Cc1ccc(-c2cc(OC(C(=O)O)C(C)C)ccc2F)cc1 (centres unmarked) [Compound 68, 2-butyl-1-[(3′-((1-carboxy-1-(1,1-dimethylmethyl)methyl)oxy)-6′-fluoro-biphenyl-4-yl)methyl]-4,4-diethyl-1H-imidazol-5(4H)one] |
| 62 | CCCCC1=NC(CC)(CC)C(=O)N1Cc1ccc(-c2cc(OC(C)(C)C(=O)O)ccc2F)cc1 [Compound 69] |
| 81 | CCCCC1=NC2(CCCCC2)C(=O)N1Cc1ccc(-c2cccc(OC(C)C(=O)O)c2)c(C)c1 (centres unmarked) [Compound 70, 2-butyl-1-[(3′-((1-carboxy-1-methylmethyl)oxy)-3-methyl-biphenyl-4-yl)methyl]-4-spirocyclohexyl-1H-imidazol-5(4H)one] |
| 77 | CCCCC1=NC2(CCCCC2)C(=O)N1Cc1ccc(-c2cccc(OC(CC)C(=O)O)c2)c(C)c1 (centres unmarked) [Compound 71, 2-butyl-1-[(3′-((1-carboxy-1-ethylmethyl)oxy)-3-methyl-biphenyl-4-yl)methyl]-4-spirocyclohexyl-1H-imidazol-5(4H)one] |
| 140 | CCCCC1=NC2(CCCCC2)C(=O)N1Cc1ccc(-c2cccc(OC(C)(C)C(=O)O)c2)c(C)c1 [Compound 72] |
| 70 | CCCCC1=NC2(CCCC2)C(=O)N1Cc1cccc(-c2cccc(OC(C)(C)C(=O)O)c2)c1 [Compound 74, 2-butyl-1-[(3′-((1-carboxy-1,1-dimethylmethyl)oxy)biphenyl-3-yl)methyl]-4-spirocyclopentyl-1H-imidazol-5(4H)-one] |
| 167 | CCCCC1=NC2(CCCC2)C(=O)N1Cc1cccc(-c2ccccc2OC(C)(C)C(=O)O)c1 [Compound 75, 2-butyl-1-[(2′-((1-carboxy-1,1-dimethylmethyl)oxy)biphenyl-3-yl)methyl]-4-spirocyclopentyl-1H-imidazol-5(4H)-one] |
| < 60 | CCCCC1=NC2(CCCC2)C(=O)N1Cc1ccc(-c2cc(OC(C)(C)C(=O)O)ccc2CCC)cc1 [Compound 76, 2-butyl-1-[(3′-((1-carboxy-1,1-dimethylmethyl)oxy)-6′-propyl-biphenyl-4-yl)methyl]-4-spirocyclopentyl-1H-imidazol-5(4H)-one] |
| 170 | CCCCC1=NC2(CCCC2)C(=O)N1Cc1cccc(-c2ccc(OC(C)(C)C(=O)O)cc2)c1 [Compound 77, 2-butyl-1-[(4′-((1-carboxy-1,1-dimethylmethyl)oxy)biphenyl-3-yl)methyl]-4-spirocyclopentyl-1H-imidazol-5(4H)-one] |
| 162 | CCCCC1=NC2(CCCC2)C(=O)N1Cc1ccc(-c2cccc(OC(C)(C)C(=O)O)c2F)cc1 [Compound 78, 2-butyl-1-[(3′-((1-carboxy-1,1-dimethylmethyl)oxy)-2′-fluoro-biphenyl-4-yl)methyl]-4-spirocyclopentyl-1H-imidazol-5(4H)-one] |
| 78 | CCCCC1=NC2(CCCC2)C(=O)N1Cc1ccc(-c2ccc(CC(C)C)c(OC(C)(C)C(=O)O)c2)cc1 [Compound 81, 2-butyl-1-[(3′-((1-carboxy-1,1-dimethylmethyl)oxy)-4′-isobutyl-biphenyl-4-yl)methyl]-4-spirocyclopentyl-1H-imidazol-5(4H)-one] |
| 76 | CCCCC1=NC2(CCCC2)C(=O)N1Cc1ccc(-c2cc(OC(C)C(=O)O)ccc2CCC)cc1 (centres unmarked) [Compound 83, 2-butyl-1-[(3′-((1-carboxy-1-methylmethyl)oxy)-6′-propyl-biphenyl-4-yl)methyl]-4-spirocyclopentyl-1H-imidazol-5(4H)-one] |
| 76 | CCCCC1=NC2(CCCC2)C(=O)N1Cc1ccc(-c2cc(OCC(=O)O)ccc2CCC)cc1 [Compound 84, 2-butyl-1-[(3′-((1-carboxymethyl)oxy)-6′-propyl-biphenyl-4-yl)methyl]-4-spirocyclopentyl-1H-imidazol-5(4H)-one] |
| 74 | CCCCC1=NC2(CCCC2)C(=O)N1Cc1ccc(-c2cc(OC(CC)C(=O)O)ccc2CCC)cc1 (centres unmarked) [Compound 85, 2-butyl-1-[(3′-((1-carboxy-1-ethylmethyl)oxy)-6′-propyl-biphenyl-4-yl)methyl]-4-spirocyclopentyl-1H-imidazol-5(4H)-one] |
| 81 | CCCCC1=NC2(CCCC2)C(=O)N1Cc1ccc(-c2cc(OC(C(=O)O)C(C)C)ccc2CCC)cc1 (centres unmarked) [Compound 86, 2-butyl-1-[(3′-((1-carboxy-1-(1,1-dimethylmethyl)methyl)oxy)-6′-propyl-biphenyl-4-yl)methyl]-4-spirocyclopentyl-1H-imidazol-5(4H)-one] |
| < 50 | CCCCC1=NC2(CCCC2)C(=O)N1Cc1ccc(-c2cc(OC(C)(C)C(=O)O)ccc2CC(C)C)cc1 [Compound 87, 2-butyl-1-[(3∝-((1-carboxy-1,1-dimethylmethyl)oxy)-6′-isobutyl-biphenyl-4-yl)methyl]-4-spirocyclopentyl-1H-imidazol-5(4H )-one] |
| < 50 | CCCCC1=NC2(CCCC2)C(=O)N1Cc1ccc(-c2cc(OC(C)(C)C(=O)O)ccc2C#N)cc1 [Compound 89, 2-butyl-1-[(3′-((1-carboxy-1.1-dimethylmethyl)oxy)-6′-cyano-biphenyl-4-yl)methyl]-4-spirocyclopentyl-1H-imidazol-5(4H)-one] |
| 157 | CCCCC1=NC2(CCCC2)C(=O)N1Cc1ccc(-c2cccc(OC(C)(C)C(=O)O)c2)c(OC)c1 [Compound 90] |
| 160 | CCCCC1=NC2(CCCC2)C(=O)N1Cc1ccc(-c2cccc(OC(C)(C)C(=O)O)c2)cc1C [Compound 91] |
| < 50 | CCCCC1=NC2(CCCC2)C(=O)N1Cc1ccc(-c2ccc([N+](=O)[O-])c(OC(C)(C)C(=O)O)c2)cc1 [Compound 95, 2-butyl-1-[(3′-((1-carboxy-1,1-dimethylmethyl)oxy)-4′-nitro-biphenyl-4-yl)methyl]-4-spirocyclopentyl-1H-imidazol-5(4H)-one] |
| 74 | CCCCC1=NC2(CCCC2)C(=O)N1Cc1ccc(-c2ccc(CCC)c(OC(C)(C)C(=O)O)c2)cc1 [Compound 98, 2-butyl-1-[(3′-((1-carboxy-1,1-dimethylmethyl)oxy)-4′-propyl-biphenyl-4-yl)methyl]-4-spirocyclopentyl-1H-imidazol-5(4H)-one] |
| 76 | CCCCC1=NC2(CCCC2)C(=O)N1Cc1ccc(-c2cccc(OC(CC)c3nnn[nH]3)c2)cc1 (centres unmarked) [Compound 99, 2-butyl-1-[(3′-((1-(tetrazol-5-yl)-1-ethylmethyl)oxy)-biophenyl-4-yl)methyl]-4-spirocyclopentyl-1H-imidazol-5(4H)-one] |
